Test results reported in paper PMC11112094, “MzmL, a novel marine derived N-acyl homoserine lactonase from Mesoflavibacter zeaxanthinifaciens that attenuates Pectobacterium carotovorum subsp. carotovorum virulence” (Frontiers in Microbiology, 2024).

System: T1, MzmL
T1 construct: full-length ORF (304 residues, predicted 16-residue signal peptide MKKLIILLITLSLFVA included in the clone), N-terminal His6 tag kept (pET-28a), E. coli BL21(DE3), Ni-NTA, ~35 kDa
Experiment: pH-indicator (bromothymol blue) assay of lactone hydrolysis, OD630, Michaelis-Menten fit
Type: biochemical, Mesoflavibacter zeaxanthinifaciens
Details: 2.5 mM MOPS pH 7.1; 25°C in methods, 28°C in table footnote; 5 nM enzyme; read-out: Km (mM)/Mean ± SD
From the text: pH-indicator (bromothymol blue) assay of lactone hydrolysis, OD630, Michaelis-Menten fit on MzmL

| SMILES | Km [mM] |
| --- | --- |
| CCCCCC(=O)N[C@H]1CCOC1=O [C6-HSL] | 0.39 ± 0.11 |
| CCCC(=O)CC(=O)N[C@H]1CCOC1=O [3-oxo-C6-HSL] | 0.08 ± 0.06 |
| CCCCCC(=O)CC(=O)N[C@H]1CCOC1=O [3-oxo-C8-HSL] | 0.46 ± 0.21 |

Results, then the compound that gave them:

| Km [mM] | SMILES |
| --- | --- |
| 0.12 ± 0.03 | CCCCCCCC(=O)CC(=O)N[C@H]1CCOC1=O [3-oxo-C10-HSL] |
| 0.04 ± 0.01 | CCCCCCCCCC(=O)N[C@H]1CCOC1=O [C10-HSL] |
